{"source": "patent US10722495B2", "about": "“Cyanoindazole compounds and uses thereof” (Incyte Corporation, priority 2017, dated 2020)", "data": [{"molecular_target": "HPK1 (Homo sapiens (Human), UniProt Q92918)", "sequence (Q92918 1-346)": "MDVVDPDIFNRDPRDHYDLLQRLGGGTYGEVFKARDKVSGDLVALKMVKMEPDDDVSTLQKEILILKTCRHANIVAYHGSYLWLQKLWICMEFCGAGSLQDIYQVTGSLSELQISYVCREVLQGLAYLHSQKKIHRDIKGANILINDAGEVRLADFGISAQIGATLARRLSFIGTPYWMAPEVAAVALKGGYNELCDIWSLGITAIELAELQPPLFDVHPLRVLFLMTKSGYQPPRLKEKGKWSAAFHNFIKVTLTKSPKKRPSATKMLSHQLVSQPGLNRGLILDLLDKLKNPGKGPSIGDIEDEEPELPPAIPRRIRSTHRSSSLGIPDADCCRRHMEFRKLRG", "experiment": "HPK1 Kinase Binding Assay", "settings": "active HPK1 (SignalChem M23-11G), tracer 222, LanthaScreen Eu-Anti GST antibody, one hour incubation at 25° C.", "method": "Example A. HPK1 Kinase Binding Assay\nA stock solution of 1 mM test compound was prepared in DMSO. The compound plate was prepared by 3-fold and 11-point serial dilutions. 0.1 μL of the compound in DMSO was transferred from the compound plate to the white 384 well polystyrene plates. The assay buffer contained 50 mM HEPES, pH 7.5, 0.01% Tween-20, 5 mM MgCl2, 0.01% BSA, and 5 mM DTT. 5 μl of 4 nM active HPK1 (SignalChem M23-11G) prepared in the buffer was added to the plate. The enzyme concentration given was based on the given stock concentration reported by the vender. 5 μl of 18 nM tracer 222 (ThermoFisher PV6121) and 4 nM LanthaScreen Eu-Anti GST antibody (ThermoFisher PV5595) were added. After one hour incubation at 25° C., the plates were read on a PHERAstar FS plate reader (BMG Labtech). Ki values were determined.", "units": {"Ki": "nM"}, "values": [{"smiles": "CNCc1cc(C)c(-c2cc3c(-c4cnco4)n[nH]c3cc2C#N)c(F)c1", "note": "[Example 36, 5-(2-Fluoro-6-methyl-4-((methylamino)methyl)phenyl)-3-(oxazol-5-yl)-1H-indazole-6-carbonitrile]", "Ki": "≤ 100"}, {"smiles": "CNCc1cc(C)c(-c2cc3c(-c4ccc(C5CCOCC5)nc4)n[nH]c3cc2C#N)c(F)c1", "note": "[Example 32, 5-(2-Fluoro-6-methyl-4-((methylamino)methyl)phenyl)-3-(6-(tetrahydro-2H-pyran-4-yl)pyridin-3-yl)-1H-indazole-6-carbonitrile]", "Ki": "≤ 100"}, {"smiles": "CNCc1cc(C)c(-c2cc3c(-c4cnn(CC(F)(F)F)c4)n[nH]c3cc2C#N)c(F)c1", "note": "[Example 3, 5-(2-Fluoro-6-methyl-4-((methylamino)methyl)phenyl)-3-(1-(2,2,2-trifluoroethyl)-1H-pyrazol-4-yl)-1H-indazole-6-carbonitrile]", "Ki": "≤ 100"}, {"smiles": "Cn1cc(-c2n[nH]c3cc(C#N)c(-c4ccccc4F)cc23)cn1", "note": "[Example 49, 5-(2-Fluorophenyl)-3-(1-methyl-1H-pyrazol-4-yl)-1H-indazole-6-carbonitrile]", "Ki": "≤ 100"}, {"smiles": "CNCc1cc(C)c(-c2cc3c(-c4ccc(C(C)(C)C#N)cc4)n[nH]c3cc2C#N)c(F)c1", "note": "[Example 19, 3-(4-(2-Cyanopropan-2-yl)phenyl)-5-(2-fluoro-6-methyl-4-((methylamino)methyl)phenyl)-1H-indazole-6-carbonitrile]", "Ki": "≤ 100"}, {"smiles": "CNCc1cc(C)c(-c2cc3c(-c4cnn(C5CC5)c4)n[nH]c3cc2C#N)c(F)c1", "note": "[Example 2, 3-(1-Cyclopropyl-1H-pyrazol-4-yl)-5-(2-fluoro-6-methyl-4-((methylamino)methyl)phenyl)-1H-indazole-6-carbonitrile]", "Ki": "≤ 100"}, {"smiles": "CNCc1cc(C)c(-c2cc3c(-c4ccc(N5CC[C@H](F)C5)nc4)n[nH]c3cc2C#N)c(F)c1", "note": "[Example 41, 5-(2-Fluoro-6-methyl-4-((methylamino)methyl)phenyl)-3-(6-((S)-3-fluoropyrrolidin-1-yl)pyridin-3-yl)-1H-indazole-6-carbonitrile]", "Ki": "≤ 100"}, {"smiles": "CNCc1cc(C)c(-c2cc3c(-c4ccc(N5CCOCC5)nc4)n[nH]c3cc2C#N)c(F)c1", "note": "[Example 28, 5-(2-Fluoro-6-methyl-4-((methylamino)methyl)phenyl)-3-(6-morpholinopyridin-3-yl)-1H-indazole-6-carbonitrile]", "Ki": "≤ 100"}, {"smiles": "CNCc1cc(C)c(-c2cc3c(-c4cnn(C)c4)n[nH]c3cc2C#N)c(F)c1", "note": "[Example 26, 5-(2-Fluoro-6-methyl-4-((methylamino)methyl)phenyl)-3-(1-methyl-1H-pyrazol-4-yl)-1H-indazole-6-carbonitrile]", "Ki": "≤ 100"}, {"smiles": "CCn1cc(-c2n[nH]c3cc(C#N)c(-c4c(C)cc(CNC)cc4F)cc23)cn1", "note": "[Example 1, 3-(1-Ethyl-1H-pyrazol-4-yl)-5-(2-fluoro-6-methyl-4-((methylamino)methyl)phenyl)-1H-indazole-6-carbonitrile]", "Ki": "≤ 100"}, {"smiles": "CNCc1cc(C)c(-c2cc3c(-c4ccc(N5CCN(C(C)=O)CC5)nc4)n[nH]c3cc2C#N)c(F)c1", "note": "[Example 30, 3-(6-(4-Acetylpiperazin-1-yl)pyridin-3-yl)-5-(2-fluoro-6-methyl-4-((methylamino)methyl)phenyl)-1H-indazole-6-carbonitrile]", "Ki": "≤ 100"}, {"smiles": "CNCc1cc(C)c(-c2cc3c(-c4ccc(C(F)(F)F)cc4)n[nH]c3cc2C#N)c(F)c1", "note": "[Example 14, 5-(2-Fluoro-6-methyl-4-((methylamino)methyl)phenyl)-3-(4-(trifluoromethyl)phenyl)-1H-indazole-6-carbonitrile]", "Ki": "≤ 100"}, {"smiles": "CNCc1cc(C)c(-c2cc3c(-c4cccc(N5CCC(O)CC5)n4)n[nH]c3cc2C#N)c(F)c1", "note": "[Example 45, 5-(2-Fluoro-6-methyl-4-((methylamino)methyl)phenyl)-3-(6-(4-hydroxypiperidin-1-yl)pyridin-2-yl)-1H-indazole-6-carbonitrile]", "Ki": "≤ 100"}, {"smiles": "CNCc1cc(C)c(-c2cc3c(-c4ccc(C5(C#N)CC5)cc4)n[nH]c3cc2C#N)c(F)c1", "note": "[Example 20, 3-(4-(1-Cyanocyclopropyl)phenyl)-5-(2-fluoro-6-methyl-4-((methylamino)methyl)phenyl)-1H-indazole-6-carbonitrile]", "Ki": "≤ 100"}, {"smiles": "CNCc1cc(C)c(-c2cc3c(-c4ccc(S(C)(=O)=O)cc4Cl)n[nH]c3cc2C#N)c(F)c1", "note": "[Example 24, 3-(2-Chloro-4-(methylsulfonyl)phenyl)-5-(2-fluoro-6-methyl-4-((methylamino)methyl)phenyl)-1H-indazole-6-carbonitrile]", "Ki": "≤ 100"}, {"smiles": "CNCc1cc(C)c(-c2cc3c(-c4cnoc4)n[nH]c3cc2C#N)c(F)c1", "note": "[Example 38, 5-(2-Fluoro-6-methyl-4-((methylamino)methyl)phenyl)-3-(isoxazol-4-yl)-1H-indazole-6-carbonitrile]", "Ki": "≤ 100"}, {"smiles": "CNCc1cc(C)c(-c2cc3c(-c4ccc(CC#N)cc4)n[nH]c3cc2C#N)c(F)c1", "note": "[Example 16, 3-(4-(Cyanomethyl)phenyl)-5-(2-fluoro-6-methyl-4-((methylamino)methyl)phenyl)-1H-indazole-6-carbonitrile]", "Ki": "≤ 100"}, {"smiles": "CNCc1cc(C)c(-c2cc3c(-c4cnsc4)n[nH]c3cc2C#N)c(F)c1", "note": "[Example 37, 5-(2-Fluoro-6-methyl-4-((methylamino)methyl)phenyl)-3-(isothiazol-4-yl)-1H-indazole-6-carbonitrile]", "Ki": "≤ 100"}, {"smiles": "CNCc1cc(C)c(-c2cc3c(-c4ccc(NC(C)=O)cc4)n[nH]c3cc2C#N)c(F)c1", "note": "[Example 10, N-(4-(6-Cyano-5-(2-fluoro-6-methyl-4-((methylamino)methyl)phenyl)-1H-indazol-3-yl)phenyl)acetamide]", "Ki": "≤ 100"}, {"smiles": "CNCc1cc(C)c(-c2cc3c(-c4ccc(C)nc4)n[nH]c3cc2C#N)c(F)c1", "note": "[Example 34, 5-(2-Fluoro-6-methyl-4-((methylamino)methyl)phenyl)-3-(6-methylpyridin-3-yl)-1H-indazole-6-carbonitrile]", "Ki": "≤ 100"}, {"smiles": "CNCc1cc(C)c(-c2cc3c(-c4cnc(OC)nc4)n[nH]c3cc2C#N)c(F)c1", "note": "[Example 35, 5-(2-Fluoro-6-methyl-4-((methylamino)methyl)phenyl)-3-(2-methoxypyrimidin-5-yl)-1H-indazole-6-carbonitrile]", "Ki": "≤ 100"}, {"smiles": "Cc1cccc(F)c1-c1cc2c(-c3cnn(C)c3)n[nH]c2cc1C#N", "note": "[Example 51, 5-(2-Fluoro-6-methylphenyl)-3-(1-methyl-1H-pyrazol-4-yl)-1H-indazole-6-carbonitrile]", "Ki": "≤ 100"}, {"smiles": "CNCc1cc(C)c(-c2cc3c(-c4ccc(C5CCOCC5)cc4)n[nH]c3cc2C#N)c(F)c1", "note": "[Example 39, 5-(2-Fluoro-6-methyl-4-((methylamino)methyl)phenyl)-3-(4-(tetrahydro-2H-pyran-4-yl)phenyl)-1H-indazole-6-carbonitrile]", "Ki": "≤ 100"}, {"smiles": "CNCc1cc(C)c(-c2cc3c(-c4ccnc(C)c4)n[nH]c3cc2C#N)c(F)c1", "note": "[Example 31, 5-(2-Fluoro-6-methyl-4-((methylamino)methyl)phenyl)-3-(2-methylpyridin-4-yl)-1H-indazole-6-carbonitrile]", "Ki": "≤ 100"}, {"smiles": "CNCc1cc(C)c(-c2cc3c(-c4ccc(CO)cc4)n[nH]c3cc2C#N)c(F)c1", "note": "[Example 7, 5-(2-Fluoro-6-methyl-4-((methylamino)methyl)phenyl)-3-(4-(hydroxymethyl)phenyl)-1H-indazole-6-carbonitrile]", "Ki": "≤ 100"}, {"smiles": "CNCc1cc(C)c(-c2cc3c(-c4cnn(-c5ccccc5Cl)c4)n[nH]c3cc2C#N)c(F)c1", "note": "[Example 5, 3-(1-(2-Chlorophenyl)-1H-pyrazol-4-yl)-5-(2-fluoro-6-methyl-4-((methylamino)methyl)phenyl)-1H-indazole-6-carbonitrile]", "Ki": "≤ 100"}, {"smiles": "CNCc1cc(C)c(-c2cc3c(-c4cnc(C)o4)n[nH]c3cc2C#N)c(F)c1", "note": "[Example 40, 5-(2-Fluoro-6-methyl-4-((methylamino)methyl)phenyl)-3-(2-methyloxazol-5-yl)-1H-indazole-6-carbonitrile]", "Ki": "≤ 100"}, {"smiles": "CNCc1cc(C)c(-c2cc3c(-c4ccc(N5CCC(O)CC5)nc4)n[nH]c3cc2C#N)c(F)c1", "note": "[Example 42, 5-(2-Fluoro-6-methyl-4-((methylamino)methyl)phenyl)-3-(6-(4-hydroxypiperidin-1-yl)pyridin-3-yl)-1H-indazole-6-carbonitrile]", "Ki": "≤ 100"}, {"smiles": "CNCc1cc(C)c(-c2cc3c(-c4ccc(C)cc4)n[nH]c3cc2C#N)c(F)c1", "note": "[Example 11, 5-(2-Fluoro-6-methyl-4-((methylamino)methyl)phenyl)-3-p-tolyl-1H-indazole-6-carbonitrile]", "Ki": "≤ 100"}, {"smiles": "CNCc1cc(C)c(-c2cc3c(-c4ccc(S(C)(=O)=O)cc4)n[nH]c3cc2C#N)c(F)c1", "note": "[Example 18, 5-(2-Fluoro-6-methyl-4-((methylamino)methyl)phenyl)-3-(4-(methylsulfonyl)phenyl)-1H-indazole-6-carbonitrile]", "Ki": "≤ 100"}, {"smiles": "CNCc1cc(C)c(-c2cc3c(-c4ccc(C(=O)N(C)C)c(F)c4)n[nH]c3cc2C#N)c(F)c1", "note": "[Example 21, 4-(6-Cyano-5-(2-fluoro-6-methyl-4-((methylamino)methyl)phenyl)-1H-indazol-3-yl)-2-fluoro-N,N-dimethylbenzamide]", "Ki": "≤ 100"}, {"smiles": "CNCc1cc(C)c(-c2cc3c(-c4cn[nH]c4)n[nH]c3cc2C#N)c(F)c1", "note": "[Example 4, 5-(2-Fluoro-6-methyl-4-((methylamino)methyl)phenyl)-3-(1H-pyrazol-4-yl)-1H-indazole-6-carbonitrile]", "Ki": "≤ 100"}]}]}
